For assay [1], the target named is T1, human leukocyte elastase (HLE) (Homo sapiens, UniProt P08246).
T1 sequence (P08246 30-247): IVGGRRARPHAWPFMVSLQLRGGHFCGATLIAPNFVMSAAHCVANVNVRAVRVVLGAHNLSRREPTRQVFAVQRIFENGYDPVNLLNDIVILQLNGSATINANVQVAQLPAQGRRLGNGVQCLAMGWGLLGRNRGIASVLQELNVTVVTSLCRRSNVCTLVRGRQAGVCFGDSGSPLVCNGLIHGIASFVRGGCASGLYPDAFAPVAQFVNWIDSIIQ
As to the kind of experiment: Dry phase test strip assay of chromogenic substrates for HLE (reflectance at 557 nm, K/S). Format: biochemical. The note with it: for K/S: response at 120 seconds; for Change in K/S: 120 seconds; for Response to HLE / hydrolysis by HLE, in words: test strip, NDNSA. How it is done:
In accordance with the method of the present invention, a test device was prepared which was sensitive to the presence of leukocyte esterase. An aqueous solution including 0.8M borate-sodium hydroxide buffer (pH 8.8) and 1% by weight of polyvinylpyrrolidone (PVP K-60 available from ISP Corp., Wayne, N.J.) first was prepared. A 4 inch wide strip of WHATMAN 3MM filter paper, available commercially from Whatman, Ltd., Maidenhead, Kent, U.K., then was impregnated with the aqueous solution. The impregnated filter paper strip next was dried in an Air Foil paper dryer, available from Thermoelectron, Kaukauna, Wis., at 79° C. to 121° C. for about 5 to 6 minutes.
The dried, impregnated filter paper strip then was impregnated a second time by immersion into an acetone solution containing 1.1 mM of a lactate ester of structural formula […], 0.7 mM 4-diazo-3-hydroxy-7-nitro-1-naphthylsulfonate (i.e., the compound of structural formula (XX), also named 6-nitro-1,2-naphthoquinone diazide), 1.5% (v/v) 1-decanol and 3% (v/v) dimethylsulfoxide. After the second impregnation, the filter paper strip was dried at 60° C. for about 5 to 6 minutes to provide an off-white filter paper strip. The dried, twice-impregnated filter paper pad is secured to an opaque or transparent hydrophobic plastic handle with double-sided adhesive tape. The dried and twice-impregnated filter paper strip was next cut to an appropriate size for a test strip assay, such as a pad having dimensions of about 0.2 in (inch) (0.5 cm) by about 0.2 in (0.5 cm).
Individual test strips each incorporating one chromogenic lactate ester having a structural formula (X) through (XIV) and a diazonium salt coupling agent were quickly immersed into standardized solutions containing 0, 19 or 48 ng/mL HLE, then removed. Approximately two minutes after contacting a standardized HLE solution, the reflectance of the test pad of the test strip was measured at 557 nm (nanometers) on a CLINITEK® 10 clinical reflectance meter, available from Miles, Inc., Elkhart, Ind.
The reflectance, R, as taken from the reflectance scale of zero to one, was incorporated into the Kubelka-Munk function:
wherein K is the absorption coefficient, S is the scattering coefficient and R is reflectance. The reflectance values determined at 557 nm were used to calculate the K/S values. The K/S values are proportional to test strip color, therefore the greater the K/S value, the greater the degree and intensity of the color transition of the test strip and the greater the concentration of HLE in the test strip.
Dry phase test strips incorporating the lactate ester of structural formula (X), and prepared as discussed above, were compared to dry phase test strips incorporating the corresponding alanine derivative (I) for an ability to detect HLE in urine. A comparison also was made between the diazonium salt coupling agents DNSA (XX) and NDNSA (XXI). The test strips were otherwise identical. The results tabulated below were obtained after quickly immersing the individual reagent strips into standardized HLE solutions. Two minutes after immersion, the test strips were examined for a chromogenic response as described above.

Assay [2] addresses T1, human leukocyte elastase (HLE). The assay is described as above. The conditions noted are these: for K/S: response at 120 seconds; for Change in K/S: between 0 and 19 ng/mL HLE; for Change in K/S / Response between 200 and 500 ng/mL HLE, in words: 120 seconds; for ΔK/S (557 mm) at 120 seconds: NDNSA (XXI); for Response between 200 and 500 ng/mL HLE, in words: test strip, NDNSA. Format: biochemical.

[3] abbreviates: HLE 0 ng/mL, diazonium salt NDNSA, 557 nm.
[4] abbreviates: HLE 19 ng/mL, diazonium salt NDNSA, 557 nm.
Where [5] appears, read: HLE 48 ng/mL, diazonium salt NDNSA, 557 nm.
Setting [6] is: between 0 and 19 ng/mL HLE, diazonium salt NDNSA.
Setting [7] is: between 0 and 48 ng/mL HLE, diazonium salt NDNSA.
The mark [8] stands for this setting: Example 10, HLE 0 ng/mL, diazonium salt not given (as in Example 6).
[9] abbreviates: Example 10, HLE 19 ng/mL, diazonium salt not given (as in Example 6).
The mark [10] stands for this setting: Example 10, diazonium salt not stated.
The mark [11] stands for this setting: change between 0 and 5 ng/mL HLE.
[12] abbreviates: change between 0 and 10 ng/mL HLE.
Setting [13] is: change between 0 and 20 ng/mL HLE.
Setting [14] is: change between 0 and 100 ng/mL HLE.
The mark [15] stands for this setting: change between 0 and 200 ng/mL HLE.
Setting [16] is: change between 0 and 500 ng/mL HLE.

The record followed here is patent publication US5464739A, “Composition method for determining the presence of leukocyte cells, esterase or protease in a test sample” (Bayer Corporation, priority 1994, dated 1995).

Consider `COC(=O)CCS(=O)(=O)N[C@@H](C)C(=O)Oc1c[nH]c(-c2ccccc2)c1`, for which the K/S worked out at 0.074 in assay [1] (setting [3]), 0.435 in assay [1] (setting [4]) and 0.976 in assay [1] (setting [5]). The “Change in K/S” value in assay [1] (setting [6]) was found to be 0.361; in assay [1] (setting [7]) it was 0.902.
With `C[C@H](NS(=O)(=O)c1cccs1)C(=O)Oc1c[nH]c(-c2ccccc2)c1` [2-Thiophene-SO2 --R--OPP, R = Alanine], the K/S in assay [1] (setting [8]) was found to be 0.050; in assay [2] (setting [9]), 0.224. In addition, the “Change in K/S” value in assay [2] (setting [10]) stood at 0.174.
As for `C[C@H](OS(=O)(=O)c1cccs1)C(=O)Oc1c[nH]c(-c2ccccc2)c1` [2-Thiophene-SO2-(L)-Lac-OPP], the K/S in assay [1] (setting [8]) worked out at 0.03; in assay [2] (setting [9]), 0.385. In assay [2] (setting [10]), the “Change in K/S” value is on record as 0.332.
Consider `COC(=O)CCS(=O)(=O)O[C@@H](C)C(=O)Oc1c[nH]c(-c2ccccc2)c1` [MeOSucc--SO2 -(L)-Lac--OPP], for which the values for the K/S in assay [1] (setting [3]), in assay [1] (setting [4]) and in assay [1] (setting [5]) were 0.177, 0.514 and 0.916, respectively. Moreover, the “Change in K/S” value in assay [1] (setting [6]) came to 0.337; in assay [1] (setting [7]), 0.739. Also, the “Response to HLE / hydrolysis by HLE, in words” value in assay [1] is “sufficient to assay for HLE”.
Regarding `C[C@H](NC(=O)c1ccccc1)C(=O)Oc1c[nH]c(-c2ccccc2)c1` [Ph--CO--R--OPP, R = Alanine], the K/S in assay [1] (setting [3]) is 0.038; in assay [1] (setting [4]), 0.039. Also, the “Change in K/S” value in assay [1] (setting [6]) is given as 0.001.
On to `C[C@H](OC(=O)c1ccccc1)C(=O)Oc1c[nH]c(-c2ccccc2)c1` [Ph--CO--R--OPP, R = Lactate (XI), PhCO-(L)-Lac--OPP], for which the values for the K/S in assay [1] (setting [3]) and in assay [1] (setting [4]) were 0.041 and 0.106, respectively. Also, the “Change in K/S” value in assay [1] (setting [6]) came out at 0.065.
On to `Cc1ccc(S(=O)(=O)O[C@@H](C)C(=O)Oc2c[nH]c(-c3ccccc3)c2)cc1` [Tosyl-(L)--Lac--OPP, 3-(O-tosyl-(L)-lactoyl)-5-phenylpyrrole], for which the K/S in assay [1] (setting [3]) was found to be 0.046; in assay [1] (setting [4]) it was 0.348. Also, in assay [1] (setting [6]), the “Change in K/S” value is on record as 0.302. In addition, the “Response to HLE / hydrolysis by HLE, in words” value in assay [1] is reported as “readily hydrolyzed by the enzyme HLE”.
For the compound `Cc1ccc(S(=O)(=O)N[C@@H](C)C(=O)Oc2c[nH]c(-c3ccccc3)c2)cc1` [Tosyl--Ala--OPP, 3-hydroxy-5-phenyl-pyrrole-N-tosyl-L-alanine ester], the K/S in assay [1] (setting [3]) turned out to be 0.044; in assay [1] (setting [4]), 0.308; in assay [2] (HLE 0 ng/mL, diazonium salt DNSA, 557 nm) it was 0.021; in assay [2] (HLE 19 ng/mL, diazonium salt DNSA, 557 nm), 0.146. Moreover, the entries for the “Change in K/S” value in assay [1] (setting [6]) and in assay [2] (diazonium salt DNSA) were 0.264 and 0.125, respectively.
For the compound `CCCS(=O)(=O)N[C@@H](C)C(=O)Oc1c[nH]c(-c2ccccc2)c1` [n-Pr--SO2 --Ala--OPP], the K/S was found to be 0.050 in assay [1] (setting [3]), 0.363 in assay [1] (setting [4]) and 0.881 in assay [1] (setting [5]). For the same compound, the “Change in K/S” value in assay [1] (setting [6]) turned out to be 0.313; in assay [1] (setting [7]) it was 0.831. In addition, the “ΔK/S (557 mm) at 120 seconds” value in assay [2] (setting [11]) was found to be 0.065; in assay [2] (setting [12]) it was 0.165; in assay [2] (setting [13]), 0.353; in assay [2] (setting [14]), 1.474; in assay [2] (setting [15]) it was 1.797; in assay [2] (setting [16]), 1.628. For the same compound, the “Response between 200 and 500 ng/mL HLE, in words” value in assay [2] was “no difference in response”.
For the compound `CCCS(=O)(=O)O[C@@H](C)C(=O)Oc1c[nH]c(-c2ccccc2)c1` [n-Pr--SO2 --Lac--OPP, nPr--SO2 -(L)-Lac--OPP], the K/S in assay [1] (setting [3]) turned out to be 0.100; in assay [1] (setting [4]) it was 0.498; in assay [1] (setting [5]) it was 1.049. For the same compound, the entries for the “Change in K/S” value in assay [1] (setting [6]) and in assay [1] (setting [7]) were 0.398 and 0.949, respectively. In addition, the “ΔK/S (557 mm) at 120 seconds” value turned out to be 0.108 in assay [2] (setting [11]); 0.257 in assay [2] (setting [12]); 0.533 in assay [2] (setting [13]); 1.462 in assay [2] (setting [14]); 1.693 in assay [2] (setting [15]); 1.915 in assay [2] (setting [16]). The “Response between 200 and 500 ng/mL HLE, in words” value in assay [2] was “continues to increase”.
